Reference: patent US20250326765A1, “PDE4B INHIBITOR AND USE THEREOF” (XIZANG HAISCO PHARMACEUTICAL CO., LTD., priority 2022, published 2025)

How the values were obtained:
[1] = target: T1, PDE4B1 (Homo sapiens, UniProt Q07343); test: Effect of compounds on PDE4B1 activity (IMAP fluorescence polarization kit); type: biochemical; conditions: class symbols
T1 construct: purchased BPS 60041
Procedure: The IMAP Reaction Buffer containing 0.1% BSA (5×) in the kit was diluted into a 1-fold reaction buffer containing 1 mM DTT. 0.12 nM PDE4B1 (BPS, Cat #60041) was added to the 1-fold reaction buffer to form a 2-fold enzyme solution. 10 μL of the 2-fold enzyme solution was added to wells of a 384-well reaction plate. For the negative control well, 10 μL of the 1-fold reaction buffer was used instead of the enzyme solution. Centrifugation at 1000 rpm for 1 minute and incubation at room temperature for 15 minutes were carried out. 0.2 uM FAM-labeled cAMP (FAM-cAMP, Molecular Device, Cat #R7506) was added to the 1-fold reaction buffer to form a 2-fold substrate solution. 10 μL of the 2-fold substrate solution was added to each well of the 384-well reaction plate. Centrifugation at 1000 rpm for 1 minute was carried out. A reaction was carried out at room temperature for 20 minutes. IMAP Progressive Binding Buffer A (5×), IMAP Progressive Binding Buffer B (5×), and IMAP Progressive Binding Reagent (provided by IMAP FP IPP Explorer Kit) were prepared into a reaction stop solution according to the instructions for use. 60 μL of an […] reaction stop solution was added to each well of the 384-well reaction plate to stop the reaction, and the reaction product was centrifuged at 1000 rpm for 1 minute. Incubation at room temperature in the dark for 60 minutes was carried out. The mP values (Ex480/Em535 (s), Em535 (p)) were read by a microplate reader (Envision).
FP was usually represented by mP value. mP value for FP measurement=1000*(S−G*P)/(S+G*P) • S: fluorescence intensity in parallel direction • P: fluorescence intensity in perpendicular direction • G: G factor=1
[formula] • mP(sample): mP of the test compound in a reaction well • mP(negative control): mP in the negative control well • mP(positive control): mP in the positive control well
According to the calculated inhibition rate at each concentration, the IC50 value of each compound was calculated by XLFit excel add-in version 5.4.0.8 software.
Y=Bottom+(Top−Bottom)/(1+(IC50/X)^HillSlope) Fitting formula: […]

[2] = target: T2, PDE4D2 (Homo sapiens, UniProt Q08499); test: Effect of compounds on PDE4D2 activity (fluorescence polarization kit); type: biochemical; conditions: class symbols
T2 construct: purchased BPS Bioscience 60345
T2 sequence (Q08499 303-809): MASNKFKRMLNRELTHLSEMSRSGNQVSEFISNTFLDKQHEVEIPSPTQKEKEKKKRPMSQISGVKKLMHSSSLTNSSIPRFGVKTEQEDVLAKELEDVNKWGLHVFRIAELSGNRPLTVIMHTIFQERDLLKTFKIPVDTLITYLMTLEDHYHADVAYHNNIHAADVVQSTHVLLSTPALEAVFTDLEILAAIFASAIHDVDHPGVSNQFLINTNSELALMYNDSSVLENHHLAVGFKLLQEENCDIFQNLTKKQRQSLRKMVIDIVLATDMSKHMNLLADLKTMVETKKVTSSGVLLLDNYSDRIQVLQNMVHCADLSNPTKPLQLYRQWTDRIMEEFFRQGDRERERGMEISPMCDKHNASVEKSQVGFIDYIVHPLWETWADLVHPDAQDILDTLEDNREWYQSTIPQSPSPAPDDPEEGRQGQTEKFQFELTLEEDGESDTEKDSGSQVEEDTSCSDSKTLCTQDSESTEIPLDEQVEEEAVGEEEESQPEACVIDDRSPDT
In short: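 PDE4D2 (0.068 ng/well final) pre-incubated 15 min at room temperature with serially diluted compound, then […] FAM-cAMP (final) added for 30 min. Binding Agent added for 1 h before fluorescence polarization readout (Ex 485/Em 520 nm, mP). Inhibition derived against positive and negative control wells; IC50 from concentration-inhibition data.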

[3] = Inhibition of LPS-induced TNF-α release from human peripheral blood mononuclear cells in vitro; type: cell-based; conditions: PBMC, hPBMC, 100 ng/mL LPS, 4 h; for IC50: class symbols, read-out: Re IC50 (nM) (relative IC50), TNF-α induced by LPS
Procedure: Normal human peripheral blood which was anticoagulated (citric acid anticoagulation) was collected, and hPBMCs were prepared by Ficoll-Paque PLUS (Cytiva, Cat #17144002, density 1.077 g/mL). The concentration of hPBMC cells was adjusted to 0.25×10^6 cells/mL with RPMI1640 medium and inoculated into a 96-well plate in an amount of 50000 cells per well. Subsequently, different concentrations of drugs were added for pre-incubation for 1 h (the DMSO final concentration was 0.1%, and the positive and negative control wells had the same volume of RPMI1640 containing 0.1% DMSO). After the pre-incubation was complete, 100 ng/mL LPS (SIGMA, L2630) was added to the compound and positive control wells, and the negative control well had the same volume of RPMI1640 containing 0.1% DMSO. Incubation was carried out for 4 h in an incubator at 37° C. and 5% CO2. The cell supernatant was collected, and the content of TNF-α in the supernatant sample was detected by human TNF-α Elisa quantitative test kit (Sino Biological, Cat #KIT10602). The IC50 value was calculated using GraphPad Prism software.

T1 sequence (Q07343 whole entry): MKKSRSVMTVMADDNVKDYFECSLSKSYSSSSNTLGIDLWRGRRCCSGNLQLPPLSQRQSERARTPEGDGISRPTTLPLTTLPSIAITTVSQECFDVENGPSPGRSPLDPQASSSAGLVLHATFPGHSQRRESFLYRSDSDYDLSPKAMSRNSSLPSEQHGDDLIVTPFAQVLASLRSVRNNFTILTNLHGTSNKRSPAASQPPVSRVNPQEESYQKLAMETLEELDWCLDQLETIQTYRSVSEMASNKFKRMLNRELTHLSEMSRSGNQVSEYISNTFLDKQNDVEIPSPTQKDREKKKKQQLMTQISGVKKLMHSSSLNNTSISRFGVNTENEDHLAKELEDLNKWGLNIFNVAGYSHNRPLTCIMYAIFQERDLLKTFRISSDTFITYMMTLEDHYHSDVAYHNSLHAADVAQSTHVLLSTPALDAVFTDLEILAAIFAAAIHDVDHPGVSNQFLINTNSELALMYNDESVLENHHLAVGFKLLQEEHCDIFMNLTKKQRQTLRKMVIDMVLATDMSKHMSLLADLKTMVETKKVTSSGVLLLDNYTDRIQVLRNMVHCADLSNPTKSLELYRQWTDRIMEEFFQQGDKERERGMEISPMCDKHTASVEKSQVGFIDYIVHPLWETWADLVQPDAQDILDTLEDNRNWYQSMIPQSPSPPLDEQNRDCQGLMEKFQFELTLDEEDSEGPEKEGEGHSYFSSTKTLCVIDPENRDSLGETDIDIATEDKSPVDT

SMILES | IC50 [1] [nM] | IC50 [2] [nM] | IC50 [3] [nM] | Emax ([3]; read-out: Max inhibition (%)) [%]
[O-][S@+]1CCc2nc(N3C[C@H]4CN(c5ccc6c(c5)CC6)C[C@H]4C3)nc(NC3(CO)CCC3)c21 [Compound 31] | < 10 | < 10 | 50 to 100 | 75.4
C#Cc1cnc(C2=CCN(c3nc4c(c(NC5(CO)CCC5)n3)[S+]([O-])CC4)CC2)nc1 (stereo not shown) [Compound 37] | < 10 | < 10 | < 10 | –
